Experimental data published in paper PMC2729980 (Planta, 2009).

Biological target: T1, DkFGT (GST-DkFGT) (Diospyros kaki, UniProt C8KH59)
T1 sequence (C8KH59 1-459): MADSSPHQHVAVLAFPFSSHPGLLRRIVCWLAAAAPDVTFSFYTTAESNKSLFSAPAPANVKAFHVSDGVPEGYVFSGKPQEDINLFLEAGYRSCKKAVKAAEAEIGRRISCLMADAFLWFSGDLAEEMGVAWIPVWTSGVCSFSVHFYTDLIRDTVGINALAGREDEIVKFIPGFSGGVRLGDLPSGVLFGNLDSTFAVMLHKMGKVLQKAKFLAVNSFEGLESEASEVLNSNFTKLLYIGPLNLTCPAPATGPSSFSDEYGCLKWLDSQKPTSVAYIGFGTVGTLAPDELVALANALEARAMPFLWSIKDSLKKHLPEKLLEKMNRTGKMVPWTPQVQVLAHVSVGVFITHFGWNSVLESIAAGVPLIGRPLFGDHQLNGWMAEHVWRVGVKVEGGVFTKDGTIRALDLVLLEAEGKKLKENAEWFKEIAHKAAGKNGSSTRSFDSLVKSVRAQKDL
Assay: biochemical

Row | Km [µM] | SMILES
1 | 186 | Oc1ccc(-c2[o+]c3cc(O)cc(O)c3cc2O)cc1 [pelargonidin]
2 | 143 | O=c1c(O)c(-c2ccc(O)cc2)oc2cc(O)cc(O)c12 [kaempferol]
